Results on nine molecules are retold here after patent US5605905A, “Antitumoral compounds” (Universidad Complutense de Madrid, priority 1992, dated 1997).

Molecules are shown by their SMILES. Values after ≈ are worked out from the molar mass of the structure shown.

In one assay the test system is P-388 cells. Description: Assay against P-388 cells (lymphoid neoplasm from DBA/2 mouse), cell count after three days. As to conditions: P388, 72 h, 1×10^4 cells per well, three days of incubation, triplicate. It counts as cell-based. As for the experimental part:
Compounds were diluted in DMSO/MeOH/Acetone (1:4.5:4.5) and they were tested at different concentrations. The solvent was allowed to evaporate before the cells were seeded.
The following antitumoral assay, employing the current screening protocol has been carried out using the following cell line:
P-388 (lymphoid neoplasm from DBA/2 mouse).
Assay Against P-388 Cells (Lymphoidneoplasm from DBA/2 Mouse )
P-388 cells were seeded into 16 mm wells at 1×10^4 cells per well in 1 ml aliquots of MEM 10C containing different concentrations of the compound. All determinations were carried out in triplicate. A separate set of cultures without drug was counted daily to ensure that the cells remained in exponential growth over the period of observation. After three days of incubation, cells were counted and the IC50 was determined.

The conditions of assay [1]: background statement, no test described; cited from earlier work.
In the next assay the test system is thymidylate synthetase. The settings on record: background, literature; cited from earlier work.
The subject of another assay is Gram positive bacteria. The settings on record: background, literature; cited from earlier work.

Regarding `CCC1C(C)=CNC2=C1C(=O)c1c(C)cc(=O)[nH]c1C2=O` (centres unmarked) [Compound 1, 4,6-dimethyl-5-5,8-dihydro-1H-1,8-diazaanthracene-2,9,10-trione], the half-maximal inhibitory concentration (IC50) in the assay with P-388 cells came to 1 mg/L (≈ 3.52 µM).
On the same count and under the same terms, the figure for `Cc1cc(=O)[nH]c2c1C(=O)C1=C(NC=CC1c1ccccc1)C2=O` (centres unmarked) [Compound 2, 4-methyl-5-phenyl-5,8-dihydro-1H-1,8-diazaanthracene-2,9,10-trione] is 0.25 mg/L (≈ 0.785 µM).
The same measure, in the same setting: the figure for `Cc1cc(=O)[nH]c2c1C(=O)C1=C(NC=CC1c1ccc(N(C)C)cc1)C2=O` (centres unmarked) [Compound 3, 5-(4-Dimethylamino-phenyl) 4-methyl-5,8-dihydro-1H-1,8-diazaanthracene-2,9,10-trione] is 20 mg/L (≈ 55.3 µM).
Still for that read-out and setting: the figure for `Cc1ccnc2c1C(=O)c1c(C)cc(=O)[nH]c1C2=O` [Compound 4, 4,5-dimethyl-1H-1,8-diazaanthracene-2,9,10-trione] is 1 mg/L (≈ 3.93 µM); for `CCc1cnc2c(c1)C(=O)c1c(C)cc(=O)[nH]c1C2=O` [Compound 5, 6-ethy-4-methyl-1H-1,8-diazaanthracene-2,9,10-trione] it is 0.5 mg/L (≈ 1.86 µM).
In the case of `Cc1cc(=O)[nH]c2c1C(=O)c1c(-c3ccc(N(C)C)cc3)ccnc1C2=O` [Compound 6, 5-(p-dimethylaminophenyl)-4-methyl-1H-1,8-diazaanthracene-2,9,10-trione], the IC50 with P-388 cells is 1 mg/L (≈ 2.78 µM). This IC50 lies about 2-fold higher than the previous one.
For the molecule `CCc1cc2c([nH]c1=O)C(=O)c1ncc(C)cc1C2=O` [Compound 7, 3-ethyl-6-methyl-1H-1,8-diazaanthracene-2,9,10-trione], the IC50 in the assay with P-388 cells stood at 0.2 mg/L (≈ 0.746 µM).
Consider `Cc1cc2c([nH]c1=O)C(=O)c1ccccc1C2=O` [Compound 8, 3-Methyl-1H-1azaanthracene-2,9,10-trione], for which, in the assay with P-388 cells, the IC50 amounted to 0.2 mg/L (≈ 0.836 µM).
`CCCc1c2c([nH]c(=O)c1C)C(=O)c1[nH]c(=O)c(C)c(CCC)c1C2=O` [Diazaquinomicyn A]: the antitumoral activity entry in assay [1] was “inactive”. Also, the “capacity to inhibit the thymidylate synthetase” value in the assay on thymidylate synthetase is recorded as “capacity to inhibit”. In addition, in the assay with Gram positive bacteria, the “activity against Gram positive bacteria” value is given as “good activity”.
